# Target: T1, menin/MLL binding (biotinylated wild-type or mutated menin and MLL-AF9 fusion protein) (Homo sapiens, UniProt O00255)
# T1 construct: biotinylated (1) wild-type menin or (2) mutated menin (described in Nature (2012) Vol. 482, pp. 542-548); fused on or other part: Biotin attached chemically (Sulfo-NHS-Biotin); no fused second protein is printed for menin
# T1 sequence (O00255 1-459 limits assumed): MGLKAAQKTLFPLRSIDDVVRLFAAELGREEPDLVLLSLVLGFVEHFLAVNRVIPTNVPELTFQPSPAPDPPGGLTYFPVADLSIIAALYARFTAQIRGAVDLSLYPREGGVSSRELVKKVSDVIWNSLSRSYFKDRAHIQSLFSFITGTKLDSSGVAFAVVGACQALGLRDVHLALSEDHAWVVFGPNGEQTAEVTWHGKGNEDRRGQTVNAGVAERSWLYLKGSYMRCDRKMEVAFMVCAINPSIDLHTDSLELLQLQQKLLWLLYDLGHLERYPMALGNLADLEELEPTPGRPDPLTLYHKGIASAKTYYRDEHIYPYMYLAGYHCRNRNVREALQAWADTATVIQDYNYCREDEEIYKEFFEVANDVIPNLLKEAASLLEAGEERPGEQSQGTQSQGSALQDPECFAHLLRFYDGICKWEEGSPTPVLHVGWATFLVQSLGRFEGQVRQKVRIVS
# Assay: Assay 1 (Binding Assay): AlphaLISA menin/MLL binding
# Conditions: 5 nM biotinylated menin, MLL-AF9-FLAG lysate
# Experimental: Potencies of inhibitor compounds against menin/MLL binding were assessed by AlphaLISA assay using biotinylated (1) wild-type menin or (2) mutated menin (described in Nature (2012) Vol. 482, pp. 542-548) and MLL-AF9 fusion protein bearing a FLAG epitope at its C-terminus. Menin proteins were expressed in E. coli and covalently modified with biotin using EZ-Link™ Sulfo-NHS-Biotin (ThermoFisher Cat. No. 21217) according to manufacturer's protocol. MLL1-1,396 fused to AF91-92 and the C-terminal FLAG peptide was expressed in HEK293 cells and used as a lysate cleared at 21,000×g for 10 min.
# Compounds (2 μL of solutions in DMSO) were dispensed in white 96-well half-area plates (Corning Cat. No. 3693) and incubated for 30 min at RT with 5 nM biotinylated menin and appropriate amount of MLL-AF9-FLAG lysate in 40 μL of 50 mM Tris-HCl buffer pH 7.4 containing 5% (v/v) DMSO, 50 mM NaCl, 0.01% (w/v) bovine serum albumin (BSA) and 1 mM DTT. To this incubation mixture, 40 μl of AlphaLISA anti-FLAG acceptor (PerkinElmer Cat. No. AL112C) and streptavidin donor (PerkinElmer Cat. No. 6760002) beads (10 μg/mL each) was added and incubation continued at RT for 60 min. Alpha (amplified luminescent proximity homogeneous assay) signal was measured on an Envision multi-label plate reader at the end of the incubation. All steps were conducted under dim fluorescent light.
# These percent inhibition values were regressed against compound concentrations in the assay using four parameter logit non-linear curve fitting (XLFit, IDBS). The IC50 values were derived from the curve fitting as inflection points on the dose-response curves and are set out in Table 14 below.
row,SMILES,IC50 [nM]
1,"CC(C)N(C)C(=O)c1cc(F)ccc1-n1cc(C2CCN(C(=O)Cc3ccccc3)CC2)c2ccncc21 [Example 133, 5-fluoro-N-isopropyl-N-methyl-2-(3-(1-(2-phenylacetyl)piperidin-4-yl)-1H-pyrrolo[2,3-c]pyridin-1-yl)benzamide]",100 to 1000
2,"CC(C)N(C)C(=O)c1cc(F)ccc1-n1cc(C2CCC(Oc3ccccc3)CC2)c2ccncc21 (stereo not shown) [Example 59, 5-fluoro-N-isopropyl-N-methyl-2-(3-(4-phenoxycyclohexyl)-1H-pyrrolo[2,3-c]pyridin-1-yl)benzamide]",100 to 1000
3,"CC(C)N(C)C(=O)c1cc(F)ccc1-n1cc(C2C[C@@H](C)N[C@@H](C)C2)c2ccncc21 (stereo partly drawn) [Int. 13, 2-(3-((2S,6R)-2,6-dimethylpiperidin-4-yl)-1H-pyrrolo[2,3-c]pyridin-1-yl)-5-fluoro-N-isopropyl-N-methylbenzamide]",100 to 1000
4,"CC(C)N(C)C(=O)c1cc(F)ccc1-n1cc(-c2ccc3c(c2)CCN(C)C3)c2ccncc21 [Example 52, 5-fluoro-N-isopropyl-N-methyl-2-(3-(2-methyl-1,2,3,4-tetrahydroisoquinolin-6-yl)-1H-pyrrolo[2,3-c]pyridin-1-yl)benzamide]",100 to 1000
5,"CC(C)N(C)C(=O)c1cc(F)ccc1-n1cc(C2CCC3(CC2)CN(C)C3)c2ccncc21 [Example 51A, 5-fluoro-N-isopropyl-N-methyl-2-(3-(2-methyl-2-azaspiro[3.5]nonan-7-yl)-1H-pyrrolo[2,3-c]pyridin-1-yl)benzamide]",100 to 1000
6,"CC(C)N(C)C(=O)c1cc(F)ccc1-n1cc(C2CCN(c3ccccn3)CC2)c2ccncc21 [Example 94, 5-fluoro-N-isopropyl-N-methyl-2-(3-(1-(pyridin-2-yl)piperidin-4-yl)-1H-pyrrolo[2,3-c]pyridin-1-yl)benzamide]",< 100
7,"CC(C)N(C)C(=O)c1cc(F)ccc1-n1cc(C2CCN(Cc3ccc(C(F)(F)F)cc3)CC2)c2ccncc21 [Example 11, 5-fluoro-N-isopropyl-N-methyl-2-(3-(1-(4-(trifluoromethyl)benzyl)piperidin-4-yl)-1H-pyrrolo[2,3-c]pyridin-1-yl)benzamide]",< 100
8,"CC(C)N(C)C(=O)c1cc(F)ccc1-n1cc([C@H]2CC[C@@H](N3CCC(C(=O)O)CC3)CC2)c2ccncc21 [Example 120, 1-(cis-4-(1-(4-fluoro-2-(isopropyl(methyl)carbamoyl)phenyl)-1H-pyrrolo[2,3-c]pyridin-3-yl)cyclohexyl)piperidine-4-carboxylic acid]",100 to 1000
9,"CC(C)N(C)C(=O)c1cc(F)ccc1-n1cc([C@H]2CC[C@@H](N3CC[C@H](CO)C3)CC2)c2ccncc21 [Example 105, 5-fluoro-2-(3-(cis-4-((S)-3-(hydroxymethyl)pyrrolidin-1-yl)cyclohexyl)-1H-pyrrolo[2,3-c]pyridin-1-yl)-N-isopropyl-N-methylbenzamide]",100 to 1000
10,"CC(C)N(C)C(=O)c1cc(F)ccc1-n1cc(C2CCCNCC2)c2ccncc21 (stereo not shown) [Example 41A, 2-(3-(azepan-4-yl)-1H-pyrrolo[2,3-c]pyridin-1-yl)-5-fluoro-N-isopropyl-N-methylbenzamide]",100 to 1000
11,"CC(C)CCN1CCC(c2cn(-c3ccc(F)cc3)c3cnccc23)CC1 [Example 39, 1-(4-fluorophenyl)-3-(1-isopentylpiperidin-4-yl)-1H-pyrrolo[2,3-c]pyridine]",100 to 1000
12,"CC(C)N(C(=O)c1cc(F)ccc1-n1cc(C2CCCN(C(=O)OC(C)(C)C)C2)c2ccncc21)C(C)C (stereo not shown) [Int. 10, tert-butyl 3-(1-(2-(diisopropylcarbamoyl)-4-fluorophenyl)-1H-pyrrolo[2,3-c]pyridin-3-yl)piperidine-1-carboxylate]",≥ 1000
13,"CC(C)N(C)C(=O)c1cc(F)ccc1-n1cc([C@H]2CC[C@H](N3CCC(O)CC3)CC2)c2ccncc21 [Example 108, 5-fluoro-2-(3-(trans-4-(4-hydroxypiperidin-1-yl)cyclohexyl)-1H-pyrrolo[2,3-c]pyridin-1-yl)-N-isopropyl-N-methylbenzamide]",100 to 1000
14,"Fc1ccc(-n2cc(C3CCN(CCc4ccccc4)CC3)c3ccncc32)cc1 [Example 40, 1-(4-fluorophenyl)-3-(1-phenethylpiperidin-4-yl)-1H-pyrrolo[2,3-c]pyridine]",100 to 1000
15,"CC(C)N(C)C(=O)c1cc(F)ccc1-n1cc([C@H]2CC[C@@H](N3CC(CO)C3)CC2)c2ccncc21 [Example 99, 5-fluoro-2-(3-(cis-4-(3-(hydroxymethyl)azetidin-1-yl)cyclohexyl)-1H-pyrrolo[2,3-c]pyridin-1-yl)-N-isopropyl-N-methylbenzamide]",100 to 1000
16,"CC(C)N(C)C(=O)c1cc(F)ccc1-n1cc(-c2ccc3c(c2)CCNC3)c2ccncc21 [Int. 17C, 5-fluoro-N-isopropyl-N-methyl-2-(3-(1,2,3,4-tetrahydroisoquinolin-6-yl)-1H-pyrrolo[2,3-c]pyridin-1-yl)benzamide]",100 to 1000
17,"CC(C)N(C)C(=O)c1cc(F)ccc1-n1cc(C2CCC(N(C)CC3CCC(NS(C)(=O)=O)CC3)CC2)c2ccncc21 (single isomer, unassigned) [Example 128A, 5-fluoro-N-isopropyl-N-methyl-2-(3-(4-(methyl((4-(methylsulfonamido)cyclohexyl)methyl)amino)cyclohexyl)-1H-pyrrolo[2,3-c]pyridin-1-yl)benzamide]",< 100
18,"Cc1c(CN2CCC(c3cn(-c4cccc(F)c4)c4cncnc34)CC2)ccc2[nH]c(C#N)cc12 [Example 71, 5-((4-(5-(3-fluorophenyl)-5H-pyrrolo[3,2-d]pyrimidin-7-yl)piperidin-1-yl)methyl)-4-methyl-1H-indole-2-carbonitrile]",≥ 1000
19,"O=c1[nH]c2ccc(CN3CCC(c4cn(-c5ccccc5)c5cncnc45)CC3)cc2[nH]1 [Example 73, 5-((4-(5-phenyl-5H-pyrrolo[3,2-d]pyrimidin-7-yl)piperidin-1-yl)methyl)-1H-benzo[d]imidazol-2(3H)-one]",≥ 1000
20,"CC(C)N(C)C(=O)c1cc(F)ccc1-n1cc(C2CC3CN(C[C@H]4C[C@H](NS(C)(=O)=O)C4)CC3C2)c2ccncc21 (stereo partly drawn) [Example 89, 5-fluoro-N-isopropyl-N-methyl-2-(3-(2-((trans-3-(methylsulfonamido)cyclobutyl)methyl)octahydrocyclopenta[c]pyrrol-5-yl)-1H-pyrrolo[2,3-c]pyridin-1-yl)benzamide]",< 100
21,"Fc1ccc(-n2cc(C3CCN(Cc4ccc5cc[nH]c5c4)CC3)c3ncncc32)cc1 [Example 68, 7-(1-((1H-indol-6-yl)methyl)piperidin-4-yl)-5-(4-fluorophenyl)-5H-pyrrolo[3,2-d]pyrimidine]",≥ 1000
22,"CC(C)N(C)C(=O)c1cc(F)ccc1-n1cc(C2CCN(C(=O)C3Cc4ccccc4C3)CC2)c2ccncc21 [Example 132, 2-(3-(1-(2,3-dihydro-1H-indene-2-carbonyl)piperidin-4-yl)-1H-pyrrolo[2,3-c]pyridin-1-yl)-5-fluoro-N-isopropyl-N-methylbenzamide]",< 100
23,"Cc1c(CN2CCC(c3cn(-c4ccc(F)cc4)c4cncnc34)CC2)ccc2[nH]c(C#N)cc12 [Example 66, 5-((4-(5-(4-fluorophenyl)-5H-pyrrolo[3,2-d]pyrimidin-7-yl)piperidin-1-yl)methyl)-4-methyl-1H-indole-2-carbonitrile]",100 to 1000
24,"CC(C)N(C(=O)c1cc(F)ccc1-n1cc(C2CCC(N3CCC4(CC(NS(C)(=O)=O)C4)C3)CC2)c2ccncc21)C(C)C (single isomer, unassigned) [Example 139, 5-fluoro-N,N-diisopropyl-2-(3-(4-(2-(methylsulfonamido)-6-azaspiro[3.4]octan-6-yl)cyclohexyl)-1H-pyrrolo[2,3-c]pyridin-1-yl)benzamide]",< 100
25,"CC(C)N(C)C(=O)c1cc(F)ccc1-n1cc([C@H]2CC[C@@H](N3CCOCC3)CC2)c2ccncc21 [Example 118, 5-fluoro-N-isopropyl-N-methyl-2-(3-(cis-4-morpholinocyclohexyl)-1H-pyrrolo[2,3-c]pyridin-1-yl)benzamide]",< 100

# Source: US10899758B2, “Inhibitors of the menin-MLL interaction” (Vitae Pharmaceuticals, LLC, priority 2016, dated 2021)
